Marks after values point to notes of the source that are not given here.
How the values were obtained:
Assay type in all cases: in vivo, mouse
[1] = test system: C57BL/6J mice; assay: Plasma cholesterol and plasma lipoprotein profile, protocol #1
Protocol: (§1) Surgery and sample harvest. The groups were maintained for 14 days (protocol #1) or 30 days (protocol #2) in the different experimental conditions. During the last three days of the protocols, 24 h depositions were collected from the different groups (pool) to determine the fecal excretion of neutral sterols (cholesterol) and acidic sterols (bile salts). At the end of the time established in the protocols, the mice were anesthetized (between 08:00-10:00 AM) with an intraperitoneal pentobarbital injection in doses of 4.5 mg per 100 gr body weight (Amigo et al., 2000) and subjected to surgery. Standardized surgery consists in an extended […] and visualization of abdominal organs, including liver, biliary tree and gallbladder. First, we performed a resection of the gallbladder (cholecystectomy), with the cystic duct previously ligated (Amigo et al., 2002; Amigo et al., 2000; Amigo et al., 2003b). The gallbladder is removed and visually inspected to determine the presence of gallstones. Then, the gallbladder bile is extracted to analyze the presence of cholesterol crystals in the fresh samples under the microscope with polarized light (20×). Aliquots are stored at −20° C. for subsequent chemical analysis. Afterwards, the common biliary duct is cannulated (biliary fistula) with a P-10 polyethylene cannula to collect bile during 15 minutes, determine bile flow by gravimetry (1 g bile=1 ml; bile flow is expressed as μl/min/g of mouse liver) and for posterior chemical analysis of biliary lipids and glutathione, as specified later. […] Then, the liver is removed, weighted, frozen in liquid nitrogen and stored at −80 for subsequent analyses. The plasma is separated by centrifugation at 1,500 rpm and stored at −80° C. for later analysis. The animal protocols were approved by our institution Ethics Committee and the animals were treated according to international care rules for experimental animals.
Intestinal absorption of cholesterol and bile salts. The capacity of Ezetimibe to inhibit cholesterol and bile salt absorption was indirectly determined by quantification of neutral sterols (cholesterol) and acidic sterols (bile acids) present in the feces collected on day 12, 13 and 14 of the experiment (three days). In order to determine cholesterol (neutral sterols) fecal excretion, the feces were dried at 50° C. for three days and then weighted to obtain an average of fecal excretion per day (in grams). The feces were homogenized in a mortar, and 5 ml 2N NaOH:methanol, 1:1 are added per 100 mg (dry weight) aliquots of the homogenate. The sample is vortex and incubated at 60° C. for 1 h for saponification, then it is cooled and 5 ml petroleum ether is added followed by vigorous agitation to obtain the separation of the hydrophobic and hydrophilic phases. The samples are then centrifuged at 1,000 rpm for 10 minutes and the hydrophobic phase (upper layer) is recovered. Second and third extractions are performed by adding 5 ml petroleum ether to the hydrophilic phase. The hydrophobic phases are dried under gaseous nitrogen and the lipids are resuspended in 1 ml chloroform. 50 μl aliquots, in duplicate, are dried at room temperature, and total cholesterol is quantified according to the enzymatic method described above. The values obtained are expressed as μmoles cholesterol/day/100 g of mouse (Miettinen et al., 1965). […]

[2] = test system: C57BL/6J mice; assay: Determination of hepatic cholesterol, protocol #1; conditions: 14 days
Protocol: as §1
Determination of hepatic cholesterol. The hepatic cholesterol content is quantified from hepatic tissue (50 mg) that is homogenized in chloroform/methanol 2:1. The homogenate is incubated at 50° C. for 30 minutes, and then distilled H2O is added to separate the phases. The mix is vortexed and incubated at 4° C. for two hours and centrifuged at 1,000 rpm for 20 minutes. The lower phase (hydrophobic-chloroform) is removed and dried under gaseous nitrogen. The lipids on the tube wall are resuspended in chloroform plus Triton X-100 0.5% v/v. Four aliquots are taken and dried at room temperature. Total cholesterol content was measured to half of the tubes by the enzymatic method described earlier for biliary cholesterol. To the other half, free cholesterol was measured in buffer (Tris-HCl pH 7.6, Triton X-100, 0.2% phenol, aminoantipyrine) plus the enzymes cholesterol oxidase and peroxidase. The samples are incubated and quantified in the same way described for total cholesterol. The cholesterol ester content for each sample is calculated as the difference between total cholesterol and free cholesterol. The values obtained in each case are given as mg cholesterol/g liver (Folch et al., 1957).

[3] = test system: C57BL/6J mice; assay: Biliary flow and hepatic secretion of biliary lipids
Protocol: as §1
Intestinal absorption of cholesterol and bile salts. The capacity of Ezetimibe to inhibit cholesterol and bile salt absorption was indirectly determined by quantification of neutral sterols (cholesterol) and acidic sterols (bile acids) present in the feces collected on day 12, 13 and 14 of the experiment (three days). In order to determine cholesterol (neutral sterols) fecal excretion, the feces were dried at 50° C. for three days and then weighted to obtain an average of fecal excretion per day (in grams). […] 50 μl aliquots, in duplicate, are dried at room temperature, and total cholesterol is quantified according to the enzymatic method described above. The values obtained are expressed as μmoles cholesterol/day/100 g of mouse (Miettinen et al., 1965). […]

[4] = test system: C57BL/6J mice; assay: Glutathione biliary secretion; conditions: lithogenic diet (FIG. 4)
Protocol: Surgery and sample harvest. The groups were maintained for 14 days (protocol #1) or 30 days (protocol #2) in the different experimental conditions. During the last three days of the protocols, 24 h depositions were collected from the different groups (pool) to determine the fecal excretion of neutral sterols (cholesterol) and acidic sterols (bile salts). At the end of the time established in the protocols, the mice were anesthetized (between 08:00-10:00 AM) with an intraperitoneal pentobarbital injection in doses of 4.5 mg per 100 gr body weight (Amigo et al., 2000) and subjected to surgery. Standardized surgery consists in an extended […] and visualization of abdominal organs, including liver, biliary tree and gallbladder. […] Afterwards, the common biliary duct is cannulated (biliary fistula) with a P-10 polyethylene cannula to collect bile during 15 minutes, determine bile flow by gravimetry (1 g bile=1 ml; bile flow is expressed as μl/min/g of mouse liver) and for posterior chemical analysis of biliary lipids and glutathione, as specified later. […]
Biliary gluthation. Biliary gluthation was quantified from the bile obtained by cannulation of the biliary duct for a 5 minute period with tubes containing 5 μl sulfosalicylic acid. […] The reaction mix was incubated at 37° C., measured at 412 nm, and an enzymatic kinetic curve was obtained using different […] concentrations as standard. […]

**Q.** Which “Plasma Cholesterol” value ([1]; Chow + Ezetimibe, 14 days) does the source give for `O=C1[C@H](CC[C@H](O)c2ccc(F)cc2)[C@@H](c2ccc(O)cc2)N1c1ccc(F)cc1` [Ezetimibe, (−)-1-(4-fluorophenyl)-(3R)-[3-(4-fluorophenyl)-(.S)-hydroxypropyl]-(4S)-(4-hydroxyphenyl)-2-azetidinone] here?
**A.** Its value is 86.21 ± 13.8 mg/dL.

**Q.** And the “Plasma Cholesterol” value ([1]; Lithogenic + Ezetimibe, 14 days)?
**A.** Its value is 161.38 ± 38.96 mg/dL.

**Q.** What about the “plasma lipoprotein profile, ezetimibe groups vs controls” value ([1]; chow and lithogenic diets, 14 days (FIG. 2)) of the same compound?
**A.** Its value is “did not show significant differences”.

**Q.** And the “concentration of total cholesterol in plasma, with vs without ezetimibe” value ([1]; control diet, 14 days)?
**A.** Its value is “similar”.

**Q.** And the “increase of plasma cholesterol concentration, with vs without ezetimibe” value ([1]; lithogenic diet, 14 days)?
**A.** The value was “similarly”.

**Q.** What about the “Hepatic Cholesterol Esterified” value ([2]; Chow + Ezetimibe) of the same compound?
**A.** Its value is 0.34 ± 0.16 mg/mL.

**Q.** What about the “Hepatic Cholesterol Free” value ([2]; Chow + Ezetimibe) of the same compound?
**A.** Its value is 1.91 ± 0.65 mg/mL.

**Q.** And the “Hepatic Cholesterol Total” value ([2]; Chow + Ezetimibe)?
**A.** The value was 2.26 ± 0.59 mg/mL.

**Q.** And the “Hepatic Cholesterol Esterified” value ([2]; Lithogenic + Ezetimibe)?
**A.** The value was 1.31 ± 0.99^& mg/ml.

**Q.** And the “Hepatic Cholesterol Free” value ([2]; Lithogenic + Ezetimibe)?
**A.** Its value is 2.59 ± 0.24 mg/mL.

**Q.** What about the “Hepatic Cholesterol Total” value ([2]; Lithogenic + Ezetimibe) of the same compound?
**A.** The value was 3.91 ± 1.05*^& mg/ml.

**Q.** And the “hepatic cholesterol content smaller with Ezetimibe than with water” value ([2]; control diet)?
**A.** Its value is 20%.

**Q.** What about the “increment of total hepatic cholesterol content” value ([2]; lithogenic diet plus Ezetimibe, 360% on lithogenic diet without Ezetimibe) of the same compound?
**A.** The value was 38%.

**Q.** What about the “biliary flow larger than in the group on lithogenic diet without ezetimibe (significant)” value ([3]; lithogenic diet) of the same compound?
**A.** Its value is 50-60%.

**Q.** What about the “secretion of bile salts and phospholipids vs group without ezetimibe” value ([3]; lithogenic diet (FIG. 3)) of the same compound?
**A.** Its value is “increase”.

**Q.** And the “secretion of biliary cholesterol vs group without ezetimibe” value ([3]; lithogenic diet (FIG. 3))?
**A.** The value was “did not associate to a greater secretion”.

**Q.** What about the “increase in biliary flow (slight, non-significant)” value ([3]; low cholesterol control diet) of the same compound?
**A.** The value was 30-40%.

**Q.** What about the “increase in glutathione secretion vs lithogenic diet only (significant)” value [4] of the same compound?
**A.** The value was 200%.

From patent US8361999B2, “Methods of treating cholesterol gallstone disease with ezetimibe” (Pontificia Universidad Catolica de Chile, priority 2005, dated 2013)
